Measured values from patent US20040247586A1, “Parkin-associated complex for protecting post-mitotic neurons from excitotoxicity and uses thereof” (priority 2003, published 2004).

Tests used:
Assay type in all cases: cell-based, mouse
[1] = system: dissociated cortical neurons from E16.5 mice; assay: parkin siRNA knockdown in kainate-treated primary cortical cultures, Western blot; settings: 25 nM siRNA, then 500 μM kainate 24 h
Method: (A) Insect cells were co-infected with baculoviruses expressing Flag-hSel-10 (110 kDa) or Flag-β-TrCP, GST-parkin, HA-CDK2, and either His6-cyclin E or His6-cyclin A1 (50 kDa). Cyclin-E- or cyclin-A1-associated complexes were isolated from cell lysates by nickel-agarose pull-downs, and analyzed by Western blotting, as indicated. (B) Flag-parkin-associated complexes (immunoprecipitated from HeLa cells transfected with Flag-tagged wild-type or T240R mutant parkin) were incubated with recombinant His6-cyclin E, HA-CDK2, E1, UbcH7, and ubiquitin, in the presence of an ATP-regenerating system. Recombinant His6-cyclin E generated in insect cells appears as a 51 -kDa band (arrow) and a minor contaminating species at 95-kDa. The asterisk indicates the position of an immunoglobulin heavy chain. (C) Parkin deficiency leads to cyclin E accumulation. Dissociated cortical neurons from E16.5 mice were cultured as described (see Examples), transfected with 25 nM parkin siRNA or control (DAT) siRNA, and then treated for 24 h with 500 μM kainate. […]
(§1) Cerebellar granule neurons from P6 mice were purified and transfected essentially as described (Scheiffele et al., Neuroligin expressed in nonneuronal cells triggers presynaptic development in contacting axons. Cell, 101:657-69, 2000). […] Cells were treated for 24 h with or without kainate (250 or 500 μM as indicated; Sigma) or MPP^+ (1 or 10 μM as indicated; Sigma), stained for 20 min with 0.5 μg/ml Hoechst 33342 (Sigma), and visualized by fluorescence microscopy. For granule cell assays, at least 100 cells in two 20× fields were scored in duplicate for GFP and/or Hoechst signal. […] Cells were washed, incubated for 1 h at room temperature with appropriately-labeled secondary antibodies, and visualized by fluorescence microscopy. For midbrain culture experiments, DAT-specific immunoreactivity (pixels), and cytoplasmic parkin and cyclin E immunoreactivity (mean pixel density), were quantified in triplicate, across nine fields of view, at 20× using Image software (Scion). […]

[2] = system: E13.5 primary culture midbrain dopamine neurons; assay: parkin siRNA knockdown in primary midbrain dopamine neuron cultures with kainate or MPP+, immunofluorescence and Hoechst
Method: Dissociated midbrain cultures from El 3.5 mice were prepared as described (see Examples), transfected with 25 nM parkin or control (SERT) siRNA, and treated for 24 h with 250 μM kainate (A-X) or 1 μM MPP^+ (U—X). Cells were treated with Hoechst dye, fixed, and stained with rabbit polyclonal antibodies against either mouse parkin or cyclin E (green) and a rat monoclonal antibody against DAT (red). Immunostaining and apoptotic nuclei were visualized by fluorescence microscopy. Arrows point to examples of DAT-positive, cyclin-E-positive neurons (S) and DAT-positive neurons with apoptotic (Hoechst-positive) nuclei (I, J, and T). Total DAT-specific immunoreactivity (pixels), across 9 fields of view at 20×, was quantified in triplicate using Image software (Scion). Cytoplasmic parkin and cyclin E immunoreactivity (mean pixel density), in DAT-positive neurons, were similarly quantified. Data are shown as the mean±SEM. Statistical significance was assessed using one-way ANOVA with Tukey-Kramer post-hoc tests between each group. *=p<0.01; scale bar=150 μm
FIG. 10 further illustrates parkin/cyclin E interaction. […] Total RNA was extracted from granule cell cultures transfected with parkin or vector alone (see FIG. 5), and from frontal cortex tissue from parkin-deficient ARPD (or age-matched control; see FIG. 4). Cyclin E and β-actin mRNA levels were determined by quantitative RT-PCR, as described (Troy et al., Death in the balance: alternative participation of the caspase-2 and -9 pathways in neuronal death induced by nerve growth factor deprivation. J. Neurosci., 21:5007-16, 2001). (B-D) Both cyclin E immunoreactivity (p<0.05) and apoptosis (p<0.05) are increased in DAT-negative neurons of primary midbrain cultures treated with parkin siRNA (and kainate) relative to control siRNA (and kainate). However, the increased cyclin E immunoreactivity and apoptosis are both less marked than in DAT-positive neurons (p<0.05 for both measures). DAT-negative neurons in midbrain cultures were analyzed as in FIG. 7; DAT-positive neuron data is from FIG. 7. Cytoplasmic parkin and cyclin E immunoreactivity (mean pixel density) in DAT-negative neurons were quantified in triplicate, across 9 fields of view at 20×. Data are shown as the mean±SEM. Statistical significance was assessed using one-way ANOVA with Tukey-Kramer post-hoc tests between each group. *=p<0.01; **=p<0.05; scale bar=150 μm (E-J) Human parkin lentiviral vectors efficiently infect cultured murine midbrain dopamine neurons. E13.5 murine midbrain cultures were infected with lentiviruses encoding human parkin or control (GFP), as described in FIG. 8.
Cerebellar granule neurons from P6 mice were purified and transfected essentially as described (Scheiffele et al., Neuroligin expressed in nonneuronal cells triggers presynaptic development in contacting axons. Cell, 101:657-69, 2000). Dissociated cortical neurons from E16.5 mice were prepared and cultured as described (Scheiffele et al., Neuroligin expressed in nonneuronal cells triggers presynaptic development in contacting axons. Cell, 10 1:657-69, 2000). Primary midbrain cultures were prepared from E13.5 mouse embryos, as described (Hynes et al., Induction of midbrain dopaminergic neurons by Sonic hedgehog. Neuron, 15:35-44, 1995). Cells were treated for 24 h with or without kainate (250 or 500 μM as indicated; Sigma) or MPP^+ (1 or 10 μM as indicated; Sigma), stained for 20 min with 0.5 μg/ml Hoechst 33342 (Sigma), and visualized by fluorescence microscopy. For granule cell assays, at least 100 cells in two 20× fields were scored in duplicate for GFP and/or Hoechst signal. For immunohistochemistry, cell cultures were washed twice with PBS, and fixed for 20 min with 4% (w/v) paraformaldehyde. Cells were blocked for 1 h, at room temperature, with 3% (v/v) goat serum in PBS, and then incubated overnight, at 4° C., with specific antibodies, as indicated. […]

[3] = system: cerebellar granule cells from P6 mice; assay: parkin overexpression in kainate-treated cerebellar granule cells, cyclin E by Western blot / immunofluorescence / RT-PCR; settings: kainate 500 μM for 24 h
Method: Cerebellar granule cells from post-natal day 6 (P6) mice were transfected in suspension with a bicistronic expression plasmid for wild-type parkin (along with GFP) or with vector (GFP alone), cultured at a density of 75,000 cells/cm^2 for 72 h, and then treated with or without 500 μM kainate for 24 h. (A) Cells were extracted directly with loading buffer, and lysates were analyzed by Western blotting, as indicated. (B-M) Granule cell cultures were fixed, stained with a specific antibody against cyclin E, and then visualized by fluorescence microscopy for cyclin E (red) and GFP (green). […]
as §1, with “microscopy.” for “microscopy. For midbrain culture experiments, DAT-specific immunoreactivity (pixels), and cytoplasmic parkin and cyclin E immunoreactivity (mean pixel density), were quantified in triplicate, across nine fields of view, at 20× using Image software (Scion).”

With “5′ UUCCAAACCGG AUGAGUGGdTdT 3′ [parkin siRNA]” the “cleaved-PARP, marker of apoptosis (Western blot)” value [1] was “accumulation of cleaved poly (ADP-ribose) polymerase”, the “cyclin E accumulation (Western blot)” value ([1]; vs control (DAT) siRNA) was “increased accumulation of cyclin E” and the “parkin protein expression (Western blot)” value ([1]; vs control (DAT) siRNA) was “significantly reduced parkin expression”. For the same molecule, the “cyclin E accumulation in DAT-positive neurons” value ([2]; 25 nM siRNA, 250 μM kainate 24 h, vs control (SERT) siRNA) was “increased accumulation of cyclin E”, the “apoptosis of DAT-positive neurons (Hoechst)” value ([2]; 25 nM siRNA, 250 μM kainate 24 h, vs control siRNA) was “increased apoptosis” and the “DAT immunoreactivity in cell bodies and processes” value ([2]; 25 nM siRNA, in the presence of kainate, vs control siRNA) was “decreased DAT immunoreactivity”. The “kainate sensitivity of DAT-negative neurons (cyclin E induction and apoptosis)” value ([2]; DAT-negative (primarily GABAergic) neurons vs DAT-positive population, p<0.05) was “did sensitize DAT-negative neurons to kainate toxicity, but to a significantly lesser extent”, the “dopamine neuron sensitivity to MPP+” value ([2]; MPP+ 10 μM) was “failed to alter dopamine neuron sensitivity” and the “cyclin E or DAT immunoreactivity, siRNA alone” value ([2]; in the absence of kainate) was “failed to alter cyclin E or DAT immunoreactivity”.
In the case of `C[n+]1ccc(-c2ccccc2)cc1` [MPP^+, 1-Methyl-4-phenylpyridinium, reference compound], the “DAT immunoreactivity after toxin” value ([2]; MPP+ 10 μM, control siRNA-treated cultures) is reported as “led to a reduction in DAT immunoreactivity comparable to the kainate treatment”.
With `C=C(C)[C@H]1CN[C@H](C(=O)O)[C@H]1CC(=O)O` [kainate, kainic acid] the “cyclin E accumulation in granule cell cultures after toxin” value [3] was “led to the accumulation of cyclin E”.
